Data on two compounds can be found in article PMC5620277, “The histone methyltransferase EZH2 as a druggable target in SHH medulloblastoma cancer stem cells” (Oncotarget, 2017).

In data set [1] the test system is mMB-SLCs. As to the kind of experiment: Self-renewal, clonogenic assay, mMB-SLCs. The format is cell-based, mouse. The conditions noted are these: 5 μM. The protocol:
(§1) For self-renewal assessment, clonogenic assay was performed as previously described. Briefly: oncospheres were disaggregated with non-enzymatic cell dissociation buffer (Sigma) and cells were plated at clonal density (1-2 cells/mm^2) into 96-well plates and cultured for an appropriate number of days (7-15) until oncospheres were countable.

The subject of data set [2] is hMB-SLCs. In words: Western Blot of H3K27me3, PCNA, cleaved caspase 3 in hMB-SLCs. The format is cell-based, human. The settings on record: 5 μM, 48 h. The protocol: (§2) To evaluate cell viability cells were plated at a density of 5×10^3 cells/well in 96-well plates and were incubated with MTS solution (CellTiter 96® AQueous One Solution Promega).
(§3) Western blots were performed according to standard procedures. Briefly, protein lysates were prepared using RIPA buffer with fresh protease inhibitors. Lysates were separated on SDS polyacrylamide gels. Proteins were transferred on nitrocellulose membrane (0.45 micron) (PerkinElmer). Membranes were blocked for 1 h at room temperature in 5% nonfat dry milk and incubated overnight at 4°C with antibodies against EZH2 (4905S Cell signaling), H3K27me3 (07-449 Millipore), PCNA (2586 Cell signaling), ACTIN (I-19 sc-1616; Santa Cruz Biotechnology), GAPDH (ab9484, Abcam), cleaved CSP-3 (D-175 9661S; Cell Signaling) and H3 (ab1971, Abcam). HRP-conjugated secondary antibodies (Santa Cruz Biotechnology) were used in combination with enhanced chemiluminescence (ECL Amersham).

The subject of data set [3] is DAOY-SLCs. In words: Cell viability, MTS assay, DAOY-SLCs. The data set is classed as cell-based. The conditions noted are these: 5 μM, after 72 h. As for the experimental part: as §2
A further data set concerns DAOY cells. As to the kind of experiment: Western Blot of H3K27me3 and PCNA in DAOY cells. The data set is classed as cell-based. The conditions noted are these: 5 μM, 48 h. As for the experimental part:
as §2, §3
A general note: A western blot detects proteins with antibodies after separation by electrophoresis.

Data set [4] is described as follows: PAMPA-BBB (porcine brain lipid extract artificial membrane). The data set is classed as in vitro ADME. The settings on record: for Papp at 24 h: Pe in cm/s, pH 7.4, 24 h, room temperature, triplicate, read-out: Log Pe (converted). The protocol:
Donor solution (500 μM or 250 μM) was prepared by diluting 10 or 5 mM DMSO compound stock solution using phosphate buffer (pH 7.4, 0.01 M). Filter membrane was coated with 5 μl of BBB-specific lipid solution prepared dissolving 16 mg of PBL (Avanti Lipids Polar, 141101P) in 600 μl of n-dodecane. Donor solution (150 μl) was added to each well of the filter plate. To each well of the acceptor plate 300 μl of solution (5% DMSO in phosphate buffer) were added. Each compound was tested in triplicate. The sandwich was incubated for 24 h at room temperature under gentle shaking. After the incubation time, the sandwich plates were separated and 250 μl of the acceptor plate were transferred to a UV quartz microtiter plate and measured by UV spectroscopy, using a Multiskan GO microplate spectrophotometer (Thermo Scientific) at 250−500 nm at step of 5 nm. Reference solutions (250 μl) were prepared diluting the sample stock solutions to the same concentration as that with no membrane barrier. The BBB permeability value Log Pe is determined applying the equation:
log Pe= log{C⋅(−ln(1−[drug]acceptor/[drug]equilibrium))},
where C=(VD⋅VA/(VD+VA)area⋅time)
In this equation, VA is the volume of the acceptor compartment (0.3 cm^3), VD is the donor volume (0.15 cm^3), area is the accessible filter area (0.24 cm^2), and time is the incubation time in seconds.

The test system of data set [5] is hMB-SLCs. In words: Self-renewal, clonogenic assay, hMB-SLCs. The format is cell-based, human. The conditions noted are these: 5 μM. As for the experimental part: as §1
The subject of data set [6] is mMB-SLCs. In words: Western Blot of H3K27me3, PCNA, cleaved caspase 3 in mMB-SLCs. The data set is classed as cell-based, mouse. The conditions noted are these: mMB-SLCs, 5 μM, 48 h. As for the experimental part:
Afterwards, we tested the ability of MC3629 (at 0.5, 5, and 25 μM) to inhibit the EZH2 enzymatic activity on a cell-based assay in vitro. The lower significant MC3629 dosage to decrease the H3K27me3 level in MB-SLCs was 5 μM (Figure 2C).
as §2, §3

For data set [7], the system named is DAOY-SLCs. In words: Western Blot of H3K27me3 and PCNA in DAOY-SLCs. The format is cell-based. The settings on record: 5 μM, 48 h. The protocol:
as §2, §3

On to `CC[C@H](C)n1cc(C)c2c(C(=O)NCc3c(C)cc(C)[nH]c3=O)cc(-c3ccc(N4CCNCC4)nc3)cc21` [GSK2816126, reference compound], for which the self-renewal result in the data set with mMB-SLCs [1] and in the data set with hMB-SLCs [5] was “significantly reduced” each time. Moreover, the “H3K27me3 and PCNA protein levels” value with hMB-SLCs [2] and with mMB-SLCs [6] was “significantly impaired” each time. The cell viability entry in the data set with DAOY-SLCs [3] was “significantly impair”. The “H3K27me3 and PCNA levels” value is given as “impaired only by MC3629” in the data set on DAOY cells and “down modulated” with DAOY-SLCs [7]. Besides, the Papp at 24 h in data set [4] was 3.89 ×10⁻⁶ cm/s. Also, in data set [4] (respect to propranolol), the “Δ Log Pe” value is on record as −0.20.
On to `CC(C)NCC(O)COc1cccc2ccccc12` (stereo not shown) [propranolol], for which the Papp at 24 h in data set [4] was 6.17 ×10⁻⁶ cm/s.
